Measured values from patent publication US20250388553A1 (Incyte Corporation, priority 2018, published 2025).
pIC50: −log10 of the molar value. Structures can show the parent of a compound that is named as a salt. Where two headings read alike, the source gives them in different places.

Legend:
[1] = target: PI3Kγ (p110γ) Recombinant Human Protein (Homo sapiens (Human), UniProt P48736); test: PI3K-γ scintillation proximity assay; type: biochemical
[2] = target: PI3Kδ (p1106/p85a) Recombinant Human Protein (Homo sapiens (Human), UniProt O00329); test: PI3Kδ scintillation proximity assay; type: biochemical
Chain of PI3Kδ (p1106/p85a) Recombinant Human Protein (O00329 whole entry): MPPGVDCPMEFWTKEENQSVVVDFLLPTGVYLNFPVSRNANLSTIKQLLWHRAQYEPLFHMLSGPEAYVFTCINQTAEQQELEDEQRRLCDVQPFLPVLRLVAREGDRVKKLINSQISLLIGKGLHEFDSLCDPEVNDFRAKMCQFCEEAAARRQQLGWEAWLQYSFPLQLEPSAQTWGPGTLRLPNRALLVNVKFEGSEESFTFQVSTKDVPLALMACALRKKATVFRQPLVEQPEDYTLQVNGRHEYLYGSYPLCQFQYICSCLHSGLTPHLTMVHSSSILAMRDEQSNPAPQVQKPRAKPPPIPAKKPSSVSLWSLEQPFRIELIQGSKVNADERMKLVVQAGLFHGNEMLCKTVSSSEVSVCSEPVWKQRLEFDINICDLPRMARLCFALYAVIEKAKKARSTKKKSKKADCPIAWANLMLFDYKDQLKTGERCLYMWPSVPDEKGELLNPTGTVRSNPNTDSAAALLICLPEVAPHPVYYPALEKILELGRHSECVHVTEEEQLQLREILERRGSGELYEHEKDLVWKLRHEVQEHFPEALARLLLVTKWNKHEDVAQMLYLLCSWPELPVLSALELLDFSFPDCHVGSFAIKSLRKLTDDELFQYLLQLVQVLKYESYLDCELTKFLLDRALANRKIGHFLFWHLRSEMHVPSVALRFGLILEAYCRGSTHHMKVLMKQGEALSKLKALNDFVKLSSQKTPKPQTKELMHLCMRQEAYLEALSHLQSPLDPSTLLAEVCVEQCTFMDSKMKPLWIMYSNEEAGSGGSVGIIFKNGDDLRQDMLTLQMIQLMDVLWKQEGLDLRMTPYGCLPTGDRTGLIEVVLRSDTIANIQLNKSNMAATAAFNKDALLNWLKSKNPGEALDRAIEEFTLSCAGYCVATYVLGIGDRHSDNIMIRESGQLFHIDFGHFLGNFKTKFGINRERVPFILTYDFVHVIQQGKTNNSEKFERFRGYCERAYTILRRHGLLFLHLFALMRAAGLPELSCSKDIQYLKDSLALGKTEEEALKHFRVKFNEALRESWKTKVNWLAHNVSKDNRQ
Chain of PI3Kδ (p1106/p85a) Recombinant Human Protein (P27986 whole entry partner): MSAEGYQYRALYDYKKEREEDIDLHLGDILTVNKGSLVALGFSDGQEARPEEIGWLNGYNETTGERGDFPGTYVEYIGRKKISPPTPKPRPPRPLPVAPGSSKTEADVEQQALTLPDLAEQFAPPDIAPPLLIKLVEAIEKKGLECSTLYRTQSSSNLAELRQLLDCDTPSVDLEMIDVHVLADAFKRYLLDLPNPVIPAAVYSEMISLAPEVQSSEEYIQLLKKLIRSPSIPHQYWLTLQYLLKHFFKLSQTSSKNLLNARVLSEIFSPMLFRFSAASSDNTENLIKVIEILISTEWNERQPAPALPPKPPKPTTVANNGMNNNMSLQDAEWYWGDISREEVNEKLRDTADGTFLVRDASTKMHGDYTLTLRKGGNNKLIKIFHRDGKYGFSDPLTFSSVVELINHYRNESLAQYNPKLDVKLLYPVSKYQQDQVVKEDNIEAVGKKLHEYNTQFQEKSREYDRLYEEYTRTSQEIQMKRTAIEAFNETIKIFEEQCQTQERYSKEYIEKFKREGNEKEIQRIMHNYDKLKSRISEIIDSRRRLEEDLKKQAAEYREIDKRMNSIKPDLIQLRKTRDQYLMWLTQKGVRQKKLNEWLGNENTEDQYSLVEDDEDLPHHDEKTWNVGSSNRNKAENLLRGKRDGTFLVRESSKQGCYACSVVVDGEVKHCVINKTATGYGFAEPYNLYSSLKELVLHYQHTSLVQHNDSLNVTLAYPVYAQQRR

[3] = system: Phosphorylated Ribosomal Protein S6 (RPS6) in THP-1 cells; test: THP-1 RPS6 ELISA assay; type: cell-based, Human; details: THP-1 cells, 10 nM MCP-1, phospho-RPS6 ELISA, read-out: PI3Kγ_THP1_RPS6_ELISA IC50
Text: Example A. THP-1 RPS6 ELISA Assay
To measure the Phosphorylated Ribosomal Protein S6 (RPS6) in cell lysates, THP-1 cells (Human Acute Monocytic Leukemia) are purchased from ATCC (Manassas, VA) and maintained in RPMI with 10% FBS (Gibco/Life Technologies, Carlsbad, CA). For the assay, THP-1 cells are serum starved overnight in RPMI, then plated in RPMI (2×10^5 cells/well in […]) into 96-well flat-bottom tissue culture treated plates (Corning, Corning, NY), in the presence or absence of a concentration range of test compounds. Covered plates are incubated for 2 hours at 37° C., 5% CO2 then treated with or without 10 nM MCP-1(MYBioSource, San Diego, CA) for 15 minutes at 37° C., 5% CO2. Plates are centrifuged at 1600 RPM and supernatants are removed. Cells are lysed in Lysis Buffer (Cell Signaling, Danvers, MA) with Protease Inhibitor (Calbiochem/EMD, Germany), PMSF (Sigma, St Louis MO), HALTS (Thermo Fisher, Rockford, IL) for 30 min on wet ice. Cell lysates are frozen at −80° C. before testing. The lysates are tested in the Human/Mouse/Rat Phospho-RPS6 ELISA (R&D Systems, Inc. Minn, MN). The plate is measured using a microplate reader (SpectraMax M5—Molecular Devices, LLC Sunnyvale, CA) set to 450 nm with a wavelength correction of 540. IC50 determination is performed by fitting the curve of inhibitor percent inhibition versus the log of the inhibitor concentration using the GraphPad Prism 5.0 software.
The compounds of the Examples were tested in the assays described in Examples A, B and C and found to have the IC50s are shown in Tables A1, A2, A3 and A4.

[4] = Table A1, scintillation proximity assay, recombinant human p110γ
[5] = Table A1, scintillation proximity assay, recombinant human PI3Kδ
[6] = Table A2, scintillation proximity assay, recombinant human p110γ
[7] = Table A2, scintillation proximity assay, recombinant human PI3Kδ
[8] = Table A3, scintillation proximity assay, recombinant human p110γ
[9] = Table A3, scintillation proximity assay, recombinant human PI3Kδ

Chain of PI3Kγ (p110γ) Recombinant Human Protein (P48736 whole entry): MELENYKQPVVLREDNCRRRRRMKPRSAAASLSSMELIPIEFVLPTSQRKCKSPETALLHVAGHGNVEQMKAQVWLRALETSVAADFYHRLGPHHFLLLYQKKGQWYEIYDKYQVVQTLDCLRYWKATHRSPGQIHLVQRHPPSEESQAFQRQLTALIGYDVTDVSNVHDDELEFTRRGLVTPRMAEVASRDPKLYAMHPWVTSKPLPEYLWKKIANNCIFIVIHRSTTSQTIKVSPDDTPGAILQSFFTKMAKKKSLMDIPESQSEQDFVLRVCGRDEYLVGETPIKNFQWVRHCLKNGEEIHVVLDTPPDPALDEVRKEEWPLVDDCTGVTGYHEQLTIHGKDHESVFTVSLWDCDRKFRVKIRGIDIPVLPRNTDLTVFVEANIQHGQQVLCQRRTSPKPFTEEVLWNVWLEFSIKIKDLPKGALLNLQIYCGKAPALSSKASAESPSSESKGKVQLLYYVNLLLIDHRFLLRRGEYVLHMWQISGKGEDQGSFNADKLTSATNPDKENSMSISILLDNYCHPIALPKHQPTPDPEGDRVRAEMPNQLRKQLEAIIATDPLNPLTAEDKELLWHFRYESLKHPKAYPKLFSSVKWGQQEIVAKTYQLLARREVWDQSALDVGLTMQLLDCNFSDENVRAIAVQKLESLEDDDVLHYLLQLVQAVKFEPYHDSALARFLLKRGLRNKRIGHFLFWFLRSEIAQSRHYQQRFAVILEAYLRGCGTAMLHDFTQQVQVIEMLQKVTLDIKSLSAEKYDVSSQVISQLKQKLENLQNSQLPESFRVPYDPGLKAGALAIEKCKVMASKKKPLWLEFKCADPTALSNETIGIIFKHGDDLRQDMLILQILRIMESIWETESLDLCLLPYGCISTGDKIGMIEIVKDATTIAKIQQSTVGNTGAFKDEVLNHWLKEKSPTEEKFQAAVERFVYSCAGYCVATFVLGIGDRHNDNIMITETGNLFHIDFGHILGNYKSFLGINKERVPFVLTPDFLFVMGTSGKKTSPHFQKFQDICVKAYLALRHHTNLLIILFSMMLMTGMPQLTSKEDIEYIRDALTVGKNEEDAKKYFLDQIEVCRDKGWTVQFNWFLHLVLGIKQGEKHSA

Row | pIC50 [1, 4] | pIC50 [2, 5] | SMILES | pIC50 [1, 8] | pIC50 [2, 9] | pIC50 ([3]; Homo sapiens, Table A3) | further results
1 | > 7.00 | > 7.00 | Cc1ccc(C(O)(C(N)=O)C(F)(F)F)cc1-c1cnc(N)c(C(=O)N[C@H]2CC[C@@](O)(C(F)(F)F)CC2)n1 (stereo partly drawn) [Example 18, 3-amino-6-(5-(3-amino-1,1,1-trifluoro-2-hydroxy-3-oxopropan-2-yl)-2-methylphenyl)-N-((1r,4r)-4-hydroxy-4-(trifluoromethyl)cyclohexyl)pyrazine-2-carboxamide trifluoroacetate] | – | – | – | pIC50 ([3]; Table A1): > 7.00
2 | > 7.00 | > 7.00 | Cc1ccc(C(O)(C(N)=O)C(F)(F)F)cc1-c1cnc(N)c(C(=O)N[C@H]2CC[C@H](C(C)(C)O)CC2)n1 (stereo partly drawn) [Example 19, 3-amino-6-(5-(3-amino-1,1,1-trifluoro-2-hydroxy-3-oxopropan-2-yl)-2-methylphenyl)-N-((1r,4r)-4-(2-hydroxypropan-2-yl)cyclohexyl)pyrazine-2-carboxamide trifluoroacetate] | – | – | – | pIC50 ([3]; Table A1): > 7.00
3 | > 7.00 | > 7.00 | CO[C@H]1CC[C@H](NC(=O)c2nc(-c3cc(C(O)(C(N)=O)C(F)(F)F)ccc3C)cnc2N)CC1 (stereo partly drawn) [Example 22, 3-amino-6-(5-(3-amino-1,1,1-trifluoro-2-hydroxy-3-oxopropan-2-yl)-2-methylphenyl)-N-((1r,4r)-4-methoxycyclohexyl)pyrazine-2-carboxamide trifluoroacetate] | – | – | – | pIC50 ([3]; Table A1): > 7.00
4 | > 7.00 | > 7.00 | COC[C@H]1CCN1C(=O)c1nc(-c2cc(C(O)(C(N)=O)C(F)(F)F)ccc2C)cnc1N (stereo partly drawn) [Example 26, 2-(3-(5-amino-6-((R)-2-(methoxymethyl)azetidine-1-carbonyl)pyrazin-2-yl)-4-methylphenyl)-3,3,3-trifluoro-2-hydroxypropanamide] | – | – | – | pIC50 ([3]; Homo sapiens, Table A1): 6.30 to 7.00
5 | > 7.00 | > 7.00 | CC(=O)NCC(O)(c1ccc(C)c(-c2cnc(N)c(C(=O)NC(C)C)n2)c1)C(F)(F)F (stereo not drawn) [Example 39, 6-(5-(3-Acetamido-1,1,1-trifluoro-2-hydroxypropan-2-yl)-2-methylphenyl)-3-amino-N-isopropylpyrazine-2-carboxamide trifluoroacetate] | – | – | – | pIC50 ([3]; Homo sapiens, Table A1): 6.30 to 7.00
6 | – | – | CCCc1nc(-c2cc(C(O)(C(N)=O)C(F)(F)F)ccc2C)cnc1N (stereo not drawn) [Example 45, 2-(3-(5-amino-6-propylpyrazin-2-yl)-4-methylphenyl)-3,3,3-trifluoro-2-hydroxypropanamide] | – | – | – | pIC50 [1, 6]: > 7.00; pIC50 [2, 7]: 6.30 to 7.00; pIC50 ([3]; Homo sapiens, Table A2): 6.30 to 7.00
7 | – | – | Cc1ccc(C(O)(C(N)=O)C(F)(F)F)cc1-c1cnc(N)c(C#CC(C)C)n1 (stereo not drawn) [Example 49, 2-(3-(5-amino-6-(3-methylbut-1-ynyl)pyrazin-2-yl)-4-methylphenyl)-3,3,3-trifluoro-2-hydroxypropanamide] | – | – | – | pIC50 [1, 6]: > 7.00; pIC50 [2, 7]: > 7.00; pIC50 ([3]; Homo sapiens, Table A2): 6.30 to 7.00
8 | – | – | Cc1ccc(C(O)(C(N)=O)C(F)(F)F)cc1-c1cnc(N)c(C#Cc2ccn[nH]2)n1 (stereo not drawn) [Example 52, 2-(3-(6-((1H-pyrazol-5-yl)ethynyl)-5-aminopyrazin-2-yl)-4-methylphenyl)-3,3,3-trifluoro-2-hydroxypropanamide] | – | – | – | pIC50 [1, 6]: > 7.00; pIC50 [2, 7]: > 7.00; pIC50 ([3]; Homo sapiens, Table A2): 6.30 to 7.00
9 | – | – | Cc1ccc(C(O)(C(N)=O)C(F)(F)F)cc1-c1cnc(N)c(C#Cc2cncn2C)n1 (stereo not drawn) [Example 53, 2-(3-(5-amino-6-((1-methyl-1H-imidazol-5-yl)ethynyl)pyrazin-2-yl)-4-methylphenyl)-3,3,3-trifluoro-2-hydroxypropanamide] | – | – | – | pIC50 [1, 6]: > 7.00; pIC50 [2, 7]: > 7.00; pIC50 ([3]; Table A2): 6.30 to 7.00
10 | – | – | Cc1ncc(-c2nc(-c3cc(C(O)(C(N)=O)C(F)(F)F)ccc3C)cnc2N)o1 (stereo not drawn) [Example 70, 2-(3-(5-amino-6-(2-methyloxazol-5-yl)pyrazin-2-yl)-4-methylphenyl)-3,3,3-trifluoro-2-hydroxypropanamide trifluoroacetate] | > 7.00 | > 7.00 | > 7.00 | –
11 | – | – | Cc1ccc(C(O)(C(N)=O)C(F)(F)F)cc1-c1cnc(N)c(-c2cnn(C)c2)n1 (stereo not drawn) [Example 71, 2-(3-(5-amino-6-(1-methyl-1H-pyrazol-4-yl)pyrazin-2-yl)-4-methylphenyl)-3,3,3-trifluoro-2-hydroxypropanamide trifluoroacetate] | > 7.00 | > 7.00 | > 7.00 | –
12 | – | – | Cc1ccc(C(O)(C(N)=O)C(F)(F)F)cc1-c1cnc(N)c(-c2cnn(C)n2)n1 (stereo not drawn) [Example 73, 2-(3-(5-amino-6-(2-methyl-2H-1,2,3-triazol-4-yl)pyrazin-2-yl)-4-methylphenyl)-3,3,3-trifluoro-2-hydroxypropanamide trifluoroacetate] | > 7.00 | > 7.00 | > 7.00 | –
13 | – | – | Cc1ccc(C(O)(C(N)=O)C(F)(F)F)cc1-c1cnc(N)c(-c2cnnn2C)n1 (stereo not drawn) [Example 74, 2-(3-(5-amino-6-(1-methyl-1H-1,2,3-triazol-5-yl)pyrazin-2-yl)-4-methylphenyl)-3,3,3-trifluoro-2-hydroxypropanamide trifluoroacetate] | > 7.00 | > 7.00 | > 7.00 | –
14 | – | – | Cc1ccc(C(O)(C(N)=O)C(F)(F)F)cc1-c1cnc(N)c(-c2cnn(CC(F)(F)F)c2)n1 (stereo not drawn) [Example 75, 2-(3-(5-amino-6-(1-(2,2,2-trifluoroethyl)-1H-pyrazol-4-yl)pyrazin-2-yl)-4-methylphenyl)-3,3,3-trifluoro-2-hydroxypropanamide trifluoroacetate] | > 7.00 | > 7.00 | > 7.00 | –
15 | – | – | Cc1ccc(C(O)(C(N)=O)C(F)(F)F)cc1-c1cnc(N)c(-c2cnn(C(C)(C)C#N)c2)n1 (stereo not drawn) [Example 76, 2-(3-(5-amino-6-(1-(2-cyanopropan-2-yl)-1H-pyrazol-4-yl)pyrazin-2-yl)-4-methylphenyl)-3,3,3-trifluoro-2-hydroxypropanamide trifluoroacetate] | > 7.00 | > 7.00 | > 7.00 | –
16 | – | – | Cc1ccc(C(O)(C(N)=O)C(F)(F)F)cc1-c1cnc(N)c(-c2cnn(C3CCOCC3)c2)n1 (stereo not drawn) [Example 77, 2-(3-(5-amino-6-(1-(tetrahydro-2H-pyran-4-yl)-1H-pyrazol-4-yl)pyrazin-2-yl)-4-methylphenyl)-3,3,3-trifluoro-2-hydroxypropanamide trifluoroacetate] | > 7.00 | > 7.00 | > 7.00 | –
17 | – | – | Cc1ccc(C(O)(C(N)=O)C(F)(F)F)cc1-c1cnc(N)c(-c2cnn(CC3(C#N)CC3)c2)n1 (stereo not drawn) [Example 78, 2-(3-(5-amino-6-(1-((1-cyanocyclopropyl)methyl)-1H-pyrazol-4-yl)pyrazin-2-yl)-4-methylphenyl)-3,3,3-trifluoro-2-hydroxypropanamide trifluoroacetate] | – | – | > 7.00 | pIC50 [1]: > 7.00; pIC50 [2]: > 7.00
18 | – | – | COCCn1cc(-c2nc(-c3cc(C(O)(C(N)=O)C(F)(F)F)ccc3C)cnc2N)cn1 (stereo not drawn) [Example 79, 2-(3-(5-amino-6-(1-(2-methoxyethyl)-1H-pyrazol-4-yl)pyrazin-2-yl)-4-methylphenyl)-3,3,3-trifluoro-2-hydroxypropanamide trifluoroacetate] | > 7.00 | > 7.00 | > 7.00 | –

Row | SMILES | pIC50 [1, 4] | pIC50 [2, 5] | pIC50 [1, 8] | pIC50 [2, 9] | pIC50 ([3]; Homo sapiens, Table A3) | further results
19 | Cc1ccc(C(O)(C(N)=O)C(F)F)cc1-c1cnc(N)c(C(=O)NC(C)C)n1 (stereo not drawn) [Example 31] | > 7.00 | > 7.00 | – | – | – | pIC50 ([3]; Table A1): > 7.00
20 | Cc1ccc(C(O)(CNC(=O)CF)C(F)(F)F)cc1-c1cnc(N)c(C(=O)NC(C)C)n1 (stereo not drawn) [Example 40, 3-Amino-N-isopropyl-6-(2-methyl-5-(1,1,1-trifluoro-3-(2-fluoroacetamido)-2-hydroxypropan-2-yl)phenyl)pyrazine-2-carboxamide trifluoroacetate] | > 7.00 | > 7.00 | – | – | – | pIC50 ([3]; Homo sapiens, Table A1): 6.30 to 7.00
21 | Cc1ccc(C(O)(CNC(=O)CC#N)C(F)(F)F)cc1-c1cnc(N)c(C(=O)NC(C)C)n1 (stereo not drawn) [Example 42, 3-Amino-6-(5-(3-(2-cyanoacetamido)-1,1,1-trifluoro-2-hydroxypropan-2-yl)-2-methylphenyl)-N-isopropylpyrazine-2-carboxamide trifluoroacetate] | > 7.00 | > 7.00 | – | – | – | pIC50 ([3]; Homo sapiens, Table A1): 6.30 to 7.00
